{"source": "paper PMC10111413", "about": "(ACS Infectious Diseases, 2023)", "key": {"[1]": {"test_system": "colistin-resistant A. baumannii isolate BV94", "assay": "G. mellonella larvae infection model", "format": "in vivo", "conditions": "injected 1 h postinfection, 10^5 cfu A. baumannii BV94 per larva, ten larvae per group, 37 °C", "source_text": "Given the promising in vitro activity of relacidamide (5), along with its high serum stability, low hemolytic activity, and ease of synthesis, we further evaluated its efficacy in an established in vivo infection model using G. mellonella larvae. The G. mellonella infection model has gained popularity in recent years and provides a convenient method to assess the in vivo effectiveness and toxicity of novel antibiotics.[15],[16] […] The larvae were first injected with either vehicle (PBS) or A. baumannii BV94 suspension in the right second proleg. The moth larvae were then injected in the left second proleg with either PBS (untreated), colistin at 100 mg/kg or 200 mg/kg, or relacidamide (5) at 100 mg/kg or 200 mg/kg. The G. mellonella larvae were then incubated for 72 h, and their survival was assessed twice per day. […]\nTen G. mellonella larvae (Serum Therapeutics Inc., average weight of 0.265 g) per group were infected using a 10 μL injection in the right second proleg with mid-log phase (OD600 = 0.5)-growing bacteria resuspended and diluted in phosphate-buffered saline (PBS) to achieve the target inoculum of 10^5 colony forming unit (cfu) per larva. […] The viability of the larvae was assessed twice a day up to a total of 72 h postinfection by checking for movement. […]"}, "S. aureus USA300": {"test_system": "S. aureus USA300", "format": "cell-based", "conditions": "CLSI microbroth dilution, Mueller Hinton broth, 18 h at 37 °C, visual read-out, three technical replicates", "description": "(§1) The antibacterial activities of relacidine A (3a) and B (4a), along with diastereomers 3b and 4b–d and relacidamide (5), were assessed using a standard microbroth dilution assay to establish minimum inhibitory concentration (MIC) values against a panel of Gram-negative bacteria (Table 1). The MIC values measured for synthetic relacidine A (3a) and B (4a) agree well with those previously published.[9] […] Relacidine A (3a) and B (4a), as well as relacidamide (5), were further tested against a panel of colistin-resistant A. baumannii clinical isolates, which confirmed their ability to prevent the growth of colistin-resistant isolates (Supplemental Table S2). […] Also of interest was the finding that while relacidine B (4a) induced <1% hemolysis, a substitution of either the L-Ala or L-Ser to D-Ala or D-Ser increased hemolytic activity to 8–12%. […] The greater hydrolytic stability of relacidine B would appear to be attributable to the increased steric bulk of the Ala side chain next to the ester linkage (compared with the methylene of Gly in relacidine A), which may hinder the nucleophilic attack of water at the ester carbonyl.\n(§2) Colistin sulfate was purchased from Activate Scientific. Kanamycin monosulfate was purchased from MP Biomedicals. E. coli ATCC 25922, S. aureus USA300 (ATCC BAA1717), and K. pneumoniae ATCC 13883 belong to the American Type Culture Collection (ATCC). P. aeruginosa PAO1 was kindly provided by L.H.C. Quarles Van Ufford of Utrecht University, Utrecht, The Netherlands. E. coli ATCC 25922 MCR-1 was transfected in-house using the pGDP2-MCR1 plasmid kindly provided by Yong-Xin Li of The University of Hong Kong, Hong Kong, China. Sheep blood agar plates (ref. PB5039A) were purchased from Thermo Scientific. Tryptic soy broth (ref. 02-200-500) was purchased from Scharlab. Mueller-Hinton broth (ref. X927.1) was purchased from Carl Roth. Polypropylene 96-wells plates (ref. 3879) were purchased from Corning.\n(§3) MICs were determined according to Clinical and Standards Laboratory Institute (CLSI) guidelines. Blood agar plates were inoculated with glycerol stocks of E. coli ATCC 25922, K. pneumoniae ATCC 13883, P. aeruginosa PAO1, and S. aureus USA300. The inoculated agar plates were then incubated for 16 h at 37 °C. Individually grown colonies were subsequently used to inoculate 5 mL aliquots of tryptic soy broth (TSB) that were then incubated at 37 °C with shaking at 220 rpm. E. coli 25922 MCR-1 glycerol stock was used to inoculate 5 mL of TSB supplemented with kanamycin that was then incubated for 16 h at 37 °C with shaking at 220 rpm. The next day, the culture was diluted 100-fold in TSB supplemented with kanamycin and incubated at 37 °C with shaking at 220 rpm. In parallel, the lipopeptide antibiotic DMSO stocks to be assessed were serially diluted with Mueller Hinton broth (MHB) in polypropylene 96-well plates (50 μL in each well). Colistin sulfate stocks were dissolved in water before being diluted with MHB. Aliquots of the inoculated TSB were incubated until an OD600 of around 0.5 was reached. The bacterial suspensions were then diluted with MHB (2 × 10^5 cfu mL^–1) and added to the microplates containing the test compounds (50 μL to each well). The well plates were sealed with an adhesive membrane, and after 18 h of incubation at 37 °C with shaking at 600 rpm, the wells were visually inspected for bacterial growth. MIC values reported are based on three technical replicates and defined as the lowest concentration of the compound that prevented visible growth of bacteria."}, "P. aeruginosa PAO1": {"test_system": "P. aeruginosa PAO1", "format": "cell-based", "conditions": "CLSI microbroth dilution, Mueller Hinton broth, 18 h at 37 °C, visual read-out, three technical replicates", "description": "as §1, §2, §3"}, "E. coli ATCC 25922 mcr-1": {"test_system": "E. coli ATCC 25922 mcr-1", "format": "cell-based", "conditions": "CLSI microbroth dilution, Mueller Hinton broth, 18 h at 37 °C, visual read-out, three technical replicates; mcr-1 colistin resistance plasmid", "description": "as §1, §2, §3"}, "K. pneumoniae ATCC 13883": {"test_system": "K. pneumoniae ATCC 13883", "format": "cell-based", "conditions": "CLSI microbroth dilution, Mueller Hinton broth, 18 h at 37 °C, visual read-out, three technical replicates", "description": "as §1, §2, §3"}, "E. coli ATCC 25922": {"test_system": "E. coli ATCC 25922", "format": "cell-based", "conditions": "CLSI microbroth dilution, Mueller Hinton broth, 18 h at 37 °C, visual read-out, three technical replicates", "description": "as §1, §2, §3"}}, "data": [{"substance": "colistin [reference compound]", "values": [{"measurement": "survival of G. mellonella larvae after 72 h", "setting": "[1]; 100 mg/kg", "result": "none"}, {"measurement": "survival of G. mellonella larvae after 72 h", "setting": "[1]; 200 mg/kg", "result": "none"}, {"measurement": "MIC S. aureus USA300", "setting": "S. aureus USA300", "result": ">32", "unit": "µg/mL"}, {"measurement": "MIC P. aeruginosa PAO1", "setting": "P. aeruginosa PAO1", "result": 1, "unit": "µg/mL"}, {"measurement": "MIC E. coli ATCC 25922 mcr-1", "setting": "E. coli ATCC 25922 mcr-1", "result": 4, "unit": "µg/mL"}, {"measurement": "MIC K. pneumoniae ATCC 13883", "setting": "K. pneumoniae ATCC 13883", "result": "0.25 to 0.5", "unit": "µg/mL"}, {"measurement": "MIC E. coli ATCC 25922", "setting": "E. coli ATCC 25922", "result": 1, "unit": "µg/mL"}]}]}
